# According to patent publication US9192647B2, “Method for reversing recent-onset type 1 diabetes (T1D) by administering substance P (sP)” (priority 2013, dated 2015):
# “Also recorded” adds a separate entry of the source. Read-outs that look alike come from different tables or passages of the source.
# What was measured:
# [1] = earlier and current trials, literature and trials registry, cited from earlier work
# [2] = test system: pancreas; test: large animal study of pancreatic sP injection via the celiac artery; format: in vivo, dog
# Description: A large animal study in dogs has recently been completed, seeking evidence for sP-induced pancreas toxicity following pancreatic injection of sP via the celiac artery. […] The injections were conducted by the Sick Kids' clinical imaging team. Since this VanilloidGenetics-sponsored study is unlikely to be published by itself, excerpt imaging data are provided in the Protocol Addendum, showing the pancreas-selective, rapidly transient (˜7 min) sP effect as measured with a co-injected, inert blue dye marker. The short-lived, physiological sP responses (hyperemia→pancreas→selective hyperperfusion and extravasation→normal pancreas appearance) illustrate the core effects expected to be duplicated in T1D patients.
# A large animal study of pancreatic sP injection in dogs, using modern pancreatitis diagnostics is currently being conducted (Mansfield et al., J. Vet. Diagn. Invest. 23, 691-697 (2011)) and histopathology for the detection of possible pancreatitis lesions. Data are expected to be complete within about two weeks of this writing, in time for the anticipated Pre-CTA meeting. Dogs are a rational choice of large animal experimental model, since Dogs spontaneously develop pancreatitis, have successfully been used in studies of experimental pancreatitis and well tested diagnostics are available (Trivedi et al., J. Vet. Intern. Med. 25, 1241-1247 (2011)).
# [3] = cited from earlier work; for tissue half-life: in vivo
# [4] = test system: pancreas; conditions: intra-arterial injection, recent-onset diabetic mice, dose range 0.01-250 nmol/kg; cited from earlier work
# [5] = test system: pancreas; test: pancreas pathology / toxicity after intra-arterial sP injection in rodents; format: in vivo, mouse
# Source text: Both islets are surrounded by normal exocrine pancreas tissue without any lesions typical for pancreatitis.
# For disease induction, the standard experimental pancreatitis model employs multiple high dose injections of the toxic secretagogue caerulein (Koh et al., J. Cell. Mol. Med. 15, 2139-2149 (2011)).
structure (smiles),measurement,setting,value
"CSCC[C@H](NC(=O)[C@H](CC(C)C)NC(=O)CNC(=O)[C@H](Cc1ccccc1)NC(=O)[C@H](Cc1ccccc1)NC(=O)[C@H](CCC(N)=O)NC(=O)[C@H](CCC(N)=O)NC(=O)[C@@H]1CCCN1C(=O)[C@H](CCCCN)NC(=O)[C@@H]1CCCN1C(=O)[C@@H](N)CCCN=C(N)N)C(N)=O [sP, substance P]",toxicity / adverse events in human clinical sP trials,[1],without sP-attributable adverse events
same,toxicity / adverse events in human clinical sP trials,[1]; listed as substance P,lack of toxicity
same,tolerability in canine studies,"[2]; 10, 50, 100 or 250 nmol/kg BW",well tolerated
same,sP-induced pancreas toxicity in dogs,"[2]; celiac artery injection, study-relevant dose range, blood tests (>1200 assays) and histopathology",not pancreas toxic; also recorded: No drug-induced toxicity was found
same,adverse events of sP celiac injections,[2]; entire canine study,without adverse events
same,vascular half-life time,[3]; as low as,< 30 s
same,vascular half-life time,[3]; in some locales,up to a minute
same,tissue half-life,[3],< 60 s
same,tissue half-life,[3]; listed as substance P,a minute or less
same,time to inactivation in tissue,[3]; proteolytic degradation and binding to NK1R in tissue,within seconds
same,pancreas pathology consistent with pancreatitis,[4],has not been observed
same,tolerability in rodent studies,"[5]; 10, 50, 100 or 250 nmol/kg BW",well tolerated
same,tissue damage or pancreatitis-like disease,[5]; sP injection without caerulein,does not cause tissue damage or pancreatitis-like disease
same,sP pancreas toxicity in rodents,[5]; without caerulein pretreatment,has not been observed
